Target: T1, sigma 1 (h) (Homo sapiens, UniProt Q99720)
T1 construct: incubating Jurkat cell membranes (10-20 mg protein per tube) with [^3H](+) pentazocine; endogenous in cells; host or cells: Jurkat cell membranes
Test: σ1 binding assay ([3H](+)pentazocine displacement, Jurkat cell membranes)
Conditions: [3H](+)pentazocine 15 nM, 37° C., 2 hours
Protocol: The σ1 binding assays were performed according to Ganapathy et al (Ganapathy, M. E. et al. (1999), J. Pharmacol. Exp. Ther., 28:251-260). The σ1 binding assay was carried out by incubating Jurkat cell membranes (10-20 mg protein per tube) with [^3H](+) pentazocine a selective S1R ligand (15 nM) and a range of concentration of tested compounds, at 37° C. for 2 hours in 5 mM tris/HCl buffer (pH=7.4). The inhibition of [3H]-(+)-pentazocine binding assay is mainly used to determine the inhibition constant (Ki) of potential SIR ligands. These assays are performed with a single concentration of [^3H]-(+)-pentazocine at a concentration near its KD and increasing concentrations of non-radioactive ligands.

T1 sequence (Q99720 whole entry): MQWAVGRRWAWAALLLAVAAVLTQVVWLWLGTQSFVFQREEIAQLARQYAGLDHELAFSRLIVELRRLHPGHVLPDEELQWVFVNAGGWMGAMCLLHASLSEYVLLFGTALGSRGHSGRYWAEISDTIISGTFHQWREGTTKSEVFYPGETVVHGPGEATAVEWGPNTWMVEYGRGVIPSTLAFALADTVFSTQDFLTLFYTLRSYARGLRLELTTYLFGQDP

inhibition at 0.01 µM (compound at 10 nM, read-out: Sigma-1 receptor % inhibition 10 nM): 78.7%
inhibition at 0.1 µM (compound at 100 nM, read-out: Sigma-1 receptor % inhibition 100 nM): 92.1%
Compound: O=c1c(-c2ccccc2)ccnn1CCCCN1CCCC(c2ccccc2)C1 (centres unmarked) [10r, 4-phenyl-2-(4-(3-phenylpiperidin-1-yl)butyl)pyridazin-3(2H)-one]
